Our source for the IC50 values is patent publication US6815440B2, “Cyclic and heterocyclic N-substituted α-iminohydroxamic and -carboxylic acids” (Aventis Pharma Deutschland GmbH, priority 1995, dated 2004).

Structures can show the parent of a compound that is named as a salt.

What all share (type): biochemical
Experiment [1] concerns the target T1, catalytic domain of human stromelysine (Homo sapiens, UniProt P08254).
T1 construct: enzymatic activity of the catalytic domains of human stomelysine and of neutrophil collagenase; made in house
As to the kind of experiment: Enzyme inhibition, catalytic domain of human stromelysine (fluorogenic substrate). The conditions noted are these: hydroxamic acids up to and including Example 33; tris/HCl buffer pH=7.5; read-out: Stromelysine IC 50. As for the experimental part:
(§1) Preparation and determination of the enzymatic activity of the catalytic domains of human stomelysine and of neutrophil collagenase.
(§2) The two enzymes were prepared according to Ye et al., (Biochemistry 31 (1992) 11231-5). To measure the enzyme activity or enzyme inhibitor action, 70 μl of buffer solution and 10 μl of enzyme solution are incubated for 15 minutes with 10 μl of a 10% strength (v/v) aqueous dimethyl sulfoxide solution, which optionally contains the enzyme inhibitor. After addition of 10 μl of a 10% strength (v/v) aqueous dimethyl sulfoxide solution which contains 1 mmol/l of the substrate, the enzyme reaction is monitored by fluorescence spectroscopy (328 nm (ex)/393 nm(em)). The enzyme activity is shown as extinction increase/minute. […] The buffer solution contains 0.05% of Brij (Sigma, Deisenhofen, Germany) and also 0.1 mol/l of tris/HCl, 0.1 mol/l of NaCl, 0.01 mol/l of CaCl2 (pH=7.5) for the determination of the hydroxamic acids up to and including Example 33, or, for the determination of the carboxylic acids from Example 34, 0.1 mol/l of piperazine-N,N′-bis[2-ethanesulfonic acid] pH=6.5.
(§3) The enzyme solution contains 5 μg/ml of one of the enzyme domains prepared according to Ye et al. The substrate solution contains 1 mmol/l of the fluorogenic substrate (7-methoxycoumarin-4-yl)acetyl-Pro-Leu-Gly-Leu-3-(2′,4′-dinitrophenyl)-L-2,3-diaminopropionyl-Ala-Arg-NH2 (Bachem, Heidelberg, Germany).

The target in experiment [2] is T2, catalytic domain of neutrophil collagenase (Homo sapiens, UniProt P22894).
T2 construct: enzymatic activity of the catalytic domains of human stomelysine and of neutrophil collagenase; made in house
T2 sequence (P22894 100-262 limits assumed): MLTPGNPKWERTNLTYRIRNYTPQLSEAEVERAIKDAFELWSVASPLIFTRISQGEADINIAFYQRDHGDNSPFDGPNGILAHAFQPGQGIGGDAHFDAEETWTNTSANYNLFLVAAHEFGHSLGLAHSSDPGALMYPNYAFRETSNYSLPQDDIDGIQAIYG
As to the kind of experiment: Enzyme inhibition, catalytic domain of neutrophil collagenase (fluorogenic substrate). The conditions noted are these: hydroxamic acids up to and including Example 33; tris/HCl buffer pH=7.5; read-out: Neutrophil collagenase IC 50. How it is done: as §1, §2, §3

The target of experiment [3] is T3, catalytic domain of stromelysine-1 (Homo sapiens, UniProt P08254).
T3 construct: enzymatic activity of the catalytic domains of human stomelysine and of neutrophil collagenase; made in house
T3 sequence (P08254 100-272 limits assumed): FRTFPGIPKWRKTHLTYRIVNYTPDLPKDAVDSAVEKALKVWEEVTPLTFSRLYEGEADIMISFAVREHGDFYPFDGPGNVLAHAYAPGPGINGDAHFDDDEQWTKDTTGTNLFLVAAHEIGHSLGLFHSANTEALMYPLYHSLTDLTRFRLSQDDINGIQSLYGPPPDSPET
In words: Proteoglycan degradation assay (bovine aggrecan, ELISA with antibody 5-D-4). To be noted: bovine nasal proteoglycane, 60 ng stromelysine-1 catalytic domain, MES pH 6.0, RT 3 h. As for the experimental part:
In the proteoglycan degradation assay, the extent of the degradation of native bovine aggrecan, the most important proteoglycan of the cartilage, is measured. The released proteoglycan fragments are determined using the monoclonal antibody 5-D-4 which recognizes the keratan sulfate side-chains which are located at the carboxy terminal of the G2 domain of aggrecan. Thus, the assay detects primarily pathologically important degradations which take place in the interglobular domain of aggrecan.
After addition of compounds of the formula I and the enzyme in the form of the catalytic domain of stromelysine-1, the amount of hyaluronic acid-bound aggrecan which remains after degradation is measured. The more aggrecan is detected, the lower the residual activity of the enzyme.
Description of the Test Protocol:
Wells of 96 well microtiter plates (Nunc, Maxisorp) each containing 100 μl of hyaluronic acid solution (25 μg/ml of hyaluronic acid (Sigma) in PBS) are incubated at room temperature (RT) for 12 h. The hyaluronic acid solution is removed by suction and the remaining free protein binding sites of the wells are saturated with in each case […] of a 5% strength solution of bovine serum albumin (BSA), 0.05% of Tween20 in PBS at RT for 1 h. The wells are subsequently covered with proteoglycane by incubating the wells with 100 μl each of a solution of bovine nasal proteoglycane (ICI) (200 μg/ml in 1×PBS, 5 mg/ml of BSA, 0.05% of Tween20) at RT for 1 h. The wells are washed twice with 1×PBS, 0.1% Tween20 to remove the free proteoglycanes. Subsequently, for the actual assay, 60 ng of purified catalytic domain of Stromelysine-1 (for the recombinant expression and purification, see Ye et al. (1992)) plus corresponding concentrations of the inhibitor to be tested in 100 μl of degradation buffer (100 mM MES pH 6.0, 100 mM NaCl, 10 mM CaCl2, 0.05% of Brij) are pipetted into the wells and incubated at RT for 3 h. The wells are washed twice with 1×PBS, 0.1% of Tween20 and then incubated with 100 μl of a solution of the detection antibody (monoclonal antibody done 5-D-4 (ICI), immunoreactive with the keratan sulfate side-chains of the proteoglycane, dilution 1:1000 in 1×PBS, 5 mg/ml BSA, 0.05% Tween20). The wells are washed twice with 1×PBS, 0.1% of Tween20, after which the immune reaction of the bound detection antibodies is carried out using 100 μl per well of an antibody solution for detection (goat anti Maus IgG, labeled with peroxidase (Dianova), diluted 1:1000 in 1×PBS, 5 mg/ml of BSA, 0.05% of Tween20) at RT for 1 h. The wells are again washed twice (as above), and the color reaction is then initiated using 100 μl each of 2 mg/ml of ABTS, activated with H2O2. The reaction products are measured in an ELISA reader at a wavelength of […].
On the technique in general: An ELISA detects its analyte on a solid surface through an enzyme-linked reagent.

T1 sequence (P08254 100-272 limits assumed): as above

With `O=C(NO)C1Cc2ccccc2CN1S(=O)(=O)c1ccc(-c2ccccc2)cc1` (stereo not drawn) [Example 2], the IC50 in experiment [1] was 20 nM; in experiment [2], 0.2 nM; in experiment [3], 85 nM.
The like results for `O=C(Nc1ccc(S(=O)(=O)N2Cc3ccccc3C[C@@H]2C(=O)NO)cc1)OCc1ccccc1` [Example 9] were, in that order, 400 nM, 800 nM and 1600 nM.
The like results for `O=C(NO)[C@H]1Cc2ccccc2CN1S(=O)(=O)c1ccc(Oc2ccccc2)cc1` [Example 13c, R-2-(4-phenoxybenzenesulfonyl)-1,2,3,4-tetrahydroisoquinoline-3-hydroxamic acid] were, in that order, 20 nM, 2 nM and 51 nM.
Taken in the same sequence, the figures for `CN(C)c1ccc(Oc2ccc(S(=O)(=O)N3Cc4ccccc4C[C@@H]3C(=O)NO)cc2)cc1` [Example 14] were 30 nM, 2 nM and 6.7 nM.
For the compound `O=C(c1ccccc1)c1ccc(S(=O)(=O)N2Cc3ccccc3C[C@@H]2C(=O)NO)cc1` [Example 18], the IC50 in experiment [1] stood at 30 nM; in experiment [2] it was 3 nM; in experiment [3], 41 nM.
The like results for `CCOC(=O)Oc1ccc2c(c1)CN(S(=O)(=O)c1ccc(OC)cc1)[C@@H](C(=O)NO)C2` [Example 21] were, in that order, 20 nM, 2 nM and 65 nM.
In the case of `COc1ccc(S(=O)(=O)N2Cc3nc[nH]c3C[C@@H]2C(=O)NO)cc1` [Example 29, R-5-(4-methoxybenzenesulfonyl)-4,5,6,7-tetrahydro-1H-imidazo-(4,5-c)-pyridine-6-hydroxamic acid hydrochloride], the IC50 is 20 nM in experiment [1], 4 nM in experiment [2] and 25 nM in experiment [3].
